# Source: patent US20240085425A1, “BIOMARKER AND APPLICATION THEREOF” (ADLAI NORTYE BIOPHARMA CO., LTD., priority 2022, published 2024)
# Columns and labels:
# Assay in all cases: Tumor cell proliferation inhibition (Promega cell viability, 72 h)
# Assay type in all cases: cell-based
# 22Rv1 = conditions: Homo sapiens, 22Rv1 cells, read-out: Anti-proliferation IC50
# Protocol: (§1) The cell lines used in the experiment are various tumor cells, including DU4475, Colo205, HepG2, PLC/PRF/5, BT-20, LS174T, NCI-H929, HCT116, SW620, SK-CO-1, SW480, DLD1, HT-29, SW900, SW1417, HuH7, H2009, PANC-1, SW48, Duadi, H358, HCT15, 22Rv1, Hela, RKO, Raji, Jurkat, NCI-H716, MDA-MB-231, NCI-H157 and THP1, and the inhibitory effect of the compound of the present disclosure on the proliferation of these tumor cells is determined, in order to screen out sensitive cell types of the compound of the present disclosure.
# (§2) DU4475, Colo205, HepG2, PLC/PRF/5, BT-20, LS174T, NCI-H929, HCT116, SW620, SK-CO-1, SW480, DLD1, HT-29, SW900, SW1417, HuH7, H2009, PANC-1, SW48, Duadi, H358, HCT15, 22Rv1, Hela, RKO, Raji, Jurkat, NCI-H716, MDA-MB-231, NCI-H157 and THP1 cell lines cultured in each medium were treated during the logarithmic growth phase, and the cells were collected and prepared into a uniform cell suspension of known concentration, and then added to the 96-well cell culture plate to make each well contain 1000 cells. Put it into a 5% CO2 incubator and incubate at 37° C. for 20-24 h. The next day, the fully dissolved 3-fold gradient diluted compound was added to each cell culture well, so that the final maximum concentration in the cell culture well was 20 μM, and the culture was continued for 72 hours. In this test, Promega's cell viability detection test is used for detection. The more the cells proliferate, the stronger the final signal intensity will be. The detection instrument is SpectraMax, full wavelength mode. The wells with only DMSO added were used as positive control wells, and the wells without cells inoculated were used as negative control wells. The IC50 value of each compound for different cell proliferation inhibition was calculated to evaluate the inhibitory effect of the compound on different tumor cells.
# BT-20 = conditions: Homo sapiens, BT-20 cells, read-out: Anti-proliferation IC50
# Protocol: as §1, §2
# Colo205 = conditions: Homo sapiens, COLO 205, Colo205 cells, read-out: Anti-proliferation IC50
# Protocol: as §1, §2
# DLD1 = conditions: Homo sapiens, DLD-1, DLD1 cells, read-out: Anti-proliferation IC50
# Protocol: as §1, §2
# DU4475 = conditions: Homo sapiens, DU-4475, DU4475 cells, read-out: Anti-proliferation IC50
# Protocol: as §1, §2
# Duadi = Duadi cells, read-out: Anti-proliferation IC50
# Protocol: as §1, §2
# H2009 = conditions: Homo sapiens, NCI-H2009, H2009 cells, read-out: Anti-proliferation IC50
# Protocol: as §1, §2
# H358 = conditions: Homo sapiens, NCI-H358, H358 cells, read-out: Anti-proliferation IC50
# Protocol: as §1, §2
# HCT116 = conditions: Homo sapiens, HCT-116, HCT116 cells, read-out: Anti-proliferation IC50
# Protocol: as §1, §2
# HCT15 = conditions: Homo sapiens, HCT-15, HCT15 cells, read-out: Anti-proliferation IC50
# Protocol: as §1, §2
# HT-29 = conditions: Homo sapiens, HT-29 cells, read-out: Anti-proliferation IC50
# Protocol: as §1, §2
# Hela = conditions: Homo sapiens, Hela cells, read-out: Anti-proliferation IC50
# Protocol: as §1, §2
# HepG2 = conditions: Homo sapiens, HepG2 cells, read-out: Anti-proliferation IC50
# Protocol: as §1, §2
# HuH7 = conditions: Homo sapiens, Huh-7, HuH7 cells, read-out: Anti-proliferation IC50
# Protocol: as §1, §2
# Jurkat = conditions: Homo sapiens, Jurkat cells, read-out: Anti-proliferation IC50
# Protocol: as §1, §2
# NCI-H157 = conditions: Homo sapiens, NCI-H157 cells, read-out: Anti-proliferation IC50
# Protocol: as §1, §2
# NCI-H716 = conditions: Homo sapiens, NCI-H716 cells, read-out: Anti-proliferation IC50
# Protocol: as §1, §2
# NCI-H929 = conditions: Homo sapiens, NCI-H929 cells, read-out: Anti-proliferation IC50
# Protocol: as §1, §2
# PANC-1 = conditions: Homo sapiens, PANC-1 cells, read-out: Anti-proliferation IC50
# Protocol: as §1, §2
# Raji = conditions: Homo sapiens, Raji cells, read-out: Anti-proliferation IC50
# Protocol: as §1, §2
# SK-CO-1 = conditions: Homo sapiens, SK-CO-1 cells, read-out: Anti-proliferation IC50
# Protocol: as §1, §2
# SW1417 = conditions: Homo sapiens, SW1417 cells, read-out: Anti-proliferation IC50
# Protocol: as §1, §2
# SW480 = conditions: Homo sapiens, SW480 cells, read-out: Anti-proliferation IC50
# Protocol: as §1, §2
# SW48 = conditions: Homo sapiens, SW48 cells, read-out: Anti-proliferation IC50
# Protocol: as §1, §2
# SW900 = conditions: Homo sapiens, SW900 cells, read-out: Anti-proliferation IC50
# Protocol: as §1, §2
# THP1 = conditions: Homo sapiens, THP-1, THP1 cells, read-out: Anti-proliferation IC50
# Protocol: as §1, §2
SMILES,IC50 (22Rv1) [nM],IC50 (BT-20) [nM],IC50 (Colo205) [nM],IC50 (DLD1) [nM],IC50 (DU4475) [nM],IC50 (Duadi) [nM],IC50 (H2009) [nM],IC50 (H358) [nM],IC50 (HCT116) [nM],IC50 (HCT15) [nM],IC50 (HT-29) [nM],IC50 (Hela) [nM],IC50 (HepG2) [nM],IC50 (HuH7) [nM],IC50 (Jurkat) [nM],IC50 (NCI-H157) [nM],IC50 (NCI-H716) [nM],IC50 (NCI-H929) [nM],IC50 (PANC-1) [nM],IC50 (Raji) [nM],further results
[2H]C([2H])([2H])N1c2nc(NCc3ccc(Oc4cnc(C(F)(F)F)nc4)nc3)nc3c2N(CCC3)C(=O)[C@]1(C)CO [AN10250399],> 10000,135,43,96.6,36.9,> 10000,214,> 10000,240,> 10000,131,> 10000,128,106,> 10000,> 10000,> 10000,396,140,> 10000,IC50 (SK-CO-1): 341 nM; IC50 (SW1417): 170 nM; IC50 (SW480): 300 nM; IC50 (SW48): > 10000 nM; IC50 (SW900): 57.2 nM; IC50 (THP1): > 10000 nM
Cc1nc(C(F)(F)F)ncc1Oc1ccc(CNc2nc(C)c3c(n2)N(C)[C@@H](C)C(=O)N3)cn1 [AN10250484],> 10000,22,9,315,7.9,> 10000,91.7,> 10000,142,> 10000,352,> 10000,11,61.3,> 10000,> 10000,> 10000,129,47.5,> 10000,IC50 (SK-CO-1): 285 nM; IC50 (SW1417): 33.4 nM; IC50 (SW480): 300 nM; IC50 (SW48): > 10000 nM; IC50 (SW900): 26.6 nM; IC50 (THP1): > 10000 nM
